In patent US7094801B2, “Chalcone derivatives and their use to treat diseases” (Atherogenics, Inc., priority 2001, dated 2006):

Key:
[1] = tested on: VCAM-1; assay: In Vitro VCAM-1 Assay (TNF-α stimulated HAEC or HPAEC, cell ELISA); format: cell-based, human; conditions: TNF-α (1 ng/ml) stimulated HAEC or HPAEC, approximately 16 hours
Method: Cell Culture and compound dosing: Cultured primary human aortic (HAEC) or pulmonary (HPAEC) endothelial cells were obtained from Clonetics, Inc., and were used below passage 9. Cells were seeded in 96 well plates such that they would reach 90–95% confluency by the following day. On the following day the cells were stimulated with TNF-α (1 ng/ml) in the presence or absence of compounds dissolved in DMSO such that the final concentration of DMSO is 0.25% or less. To establish a dose curve for each compound, four concentrations in 2- to 5-fold increments were used. Cells were exposed to TNF-α and compounds for approximately 16 hours. The next day the cells were examined under microscope to score for visual signs of toxicity or cell stress.
Following 16 hr exposure to TNF-α and compound the media was discarded and the cells were washed once with Hanks Balanced Salt Solution (HBSS)/Phosphate buffered saline (PBS) (1:1). Primary antibodies against VCAM-1 (0.25 μg/ml in HBSS/PBS+5% FBS) were added and incubated for 30–60 minutes at 37° C. Cells were washed with HBSS/PBS three times, and secondary antibody Horse Radish Peroxidase (HRP)-conjugated goat anti-mouse IgG (1:500 in HBSS/PBS+5% FBS) were added and incubated for 30 minutes at 37° C. Cells were washed with HBSS/PBS four time and TMB substrate were added and incubated at room temperature in the dark until there was adequate development of blue color. The length of time of incubation was typically 5–15 minutes. 2N sulfuric acid was added to stop the color development and the data was collected by reading the absorbance on a BioRad ELISA plate reader at OD 450 nm. The results are expressed as IC50 values (the concentration (micromolar) of compound required to inhibit 50% of the maximal response of the control sample stimulated by TNF-α only).

IC50 ([1]; Homo sapiens, 16 h) | melting point | IC50 [1] | Structure (SMILES)
< 5 µM | 219 to 220 °C | – | COc1ccc(/C=C/C(=O)c2ccc(C(=O)O)cc2)cc1-c1cccs1 [Example 41, 4-[3E-(4-Methoxy-3-thiophen-2-yl-phenyl)-acryloyl]-benzoic acid]
< 1 µM | 232 to 235 °C | – | O=C(O)c1ccc(C(=O)/C=C/c2ccc(-c3nccs3)cc2)cc1 [Example 5, 4-[3E-(4-Thiazol-2-yl-phenyl)acryloyl]-benzoic acid]
< 5 µM | 166 to 168 °C | – | O=C(/C=C/c1ccc(-c2cccs2)cc1)c1ccc2c(c1)OC(CO)(CO)O2 [Example 2, 1-(2,2-Bis-hydroxymethyl-benzo[1,3]dioxol-5-yl)-3E-(4-thiophen-2-yl-phenyl)-propenone]
> 10 µM | > 245 °C | – | NS(=O)(=O)c1ccc(C(=O)/C=C/c2ccc(-c3cccs3)cc2)cc1 [Example 26, 4-[3E-(4-Thiophen-2-yl-phenyl)-acryloyl]-benzenesulfonamide]
< 10 µM | 191 to 192 °C | – | COc1cc(OCC(CO)CO)c(-c2cccs2)cc1/C=C/C(=O)c1ccc(S(N)(=O)=O)cc1 [Example 106, 4-{3E-[4-(3-Hydroxy-2-hydroxymethyl-propoxy)-2-methoxy-5-thiophen-2-yl-phenyl]-acryloyl}-benzenesulfonamide]
> 10 µM | 209 to 212 °C | – | CCOC(=O)CNC(=O)Nc1ccc(C(=O)/C=C/c2ccc(-c3cccs3)cc2)cc1 [Example 15, (3-{4-[3E-(4-Thiophen-2-yl-phenyl)-acryloyl]-phenyl}-ureido)-acetic acid ethyl ester]
< 1 µM | 186 to 188 °C | – | COc1cc(OCCN2CCOCC2)c(/C=C/C(=O)c2ccc(S(N)(=O)=O)cc2)cc1-c1cccs1 [Example 81, 4-{3E-[4-Methoxy-2-(2-morpholin-4-yl-ethoxy)-5-thiophen-2-yl-phenyl]-acryloyl}-benzenesulfonamide]
< 5 µM | 255 °C (dec.) | – | COc1cc(OCn2nnc3ccccc32)c(/C=C/C(=O)c2ccc(S(N)(=O)=O)cc2)cc1-c1cccs1 [Example 115, 4-{3E-[2-(Benzotriazol-1-ylmethoxy)-4-methoxy-5-thiophen-2-yl-phenyl]-acryloyl}-benzenesulfonamide]
< 5 µM | 148 to 150 °C | – | COc1cc(OC)c(-c2cc3ccccc3n2C)cc1/C=C/C(=O)c1ccc(S(N)(=O)=O)cc1 [Example 117, 4-{3E-[2,4-Dimethoxy-5-(1-methyl-1H-indol-2-yl)-phenyl]-acryloyl}-benzenesulfonamide]
< 1 µM | 71 to 75 °C | – | COc1cc(/C=C/C(=O)c2ccc(NS(C)(=O)=O)cc2)cc(-c2cccs2)c1OC [Example 14, N-{4-[3E-(3,4-Dimethoxy-5-thiophen-2-yl-phenyl)-acryloyl]-phenyl}-methanesulfonamide]

Further lines, the molecule ahead of its results:

Structure (SMILES) | IC50 ([1]; Homo sapiens, 16 h) | melting point | IC50 [1]
COc1cc(OC)c(-c2cccn2C(=O)OC(C)(C)C)cc1/C=C/C(=O)c1ccc(C(=O)O)cc1 [Example 57, 2-{5-[3-(4-Carboxy-phenyl)-3-oxo-E-propenyl]-2,4-dimethoxy-phenyl}-pyrrole-1-carboxylic acid tert-butyl ester] | < 5 µM | 205 to 207 °C | –
COc1cc(OC)c(-c2cc3ccccc3s2)cc1/C=C/C(=O)c1ccc(C(=O)NC(C)=O)cc1 [Example 95, N-Acetyl-4-[3E-(5-benzo[b]thiophen-2-yl-2,4-dimethoxy-phenyl)-acryloyl]-benzamide] | < 1 µM | 228 to 229 °C | –
COc1cc(OC)c(-c2cc3ccccc3s2)cc1/C=C/C(=O)c1ccc(C(=O)NCC(F)(F)F)cc1 [Example 91, 4-[3E-(5-Benzo[b]thiophen-2-yl-2,4-dimethoxy-phenyl)-acryloyl]-N-(2,2,2-trifluoro-ethyl)-benzamide] | < 5 µM | 215 to 217 °C | –
COc1cc(OC(C)(C)C(=O)O)c(-c2cccs2)cc1/C=C/C(=O)c1ccc(NS(C)(=O)=O)cc1 [Example 100, 2-{4-[3-(4-Methanesulfonylamino-phenyl)-3-oxo-E-propenyl]-5-methoxy-2-thiophen-2-yl-phenoxy}-2-methyl-propionic acid] | > 10 µM | 181 to 183 °C | –
COc1cc(OC)c(-c2cc3ccccc3[nH]2)cc1/C=C/C(=O)c1ccc(S(N)(=O)=O)cc1 [Example 84, 4-{3E-[5-(1H-Indol-2-yl)-2,4-dimethoxy-phenyl]-acryloyl}-benzenesulfonamide] | < 5 µM | 185 to 187 °C | –
COc1cc(OC)c(/C=C/C(=O)c2ccc(C(=O)O)cc2)c(-c2cccs2)c1 [Example 39, 4-[3E-(2,4-Dimethoxy-6-thiophen-2-yl-phenyl)-acryloyl]-benzoic acid] | > 10 µM | 231 °C (dec.) | –
COc1cc(OC)c(-c2ccc(C)s2)cc1/C=C/C(=O)c1ccc(C(=O)O)cc1 [Example 40, 4-{3E-[2,4-Dimethoxy-5-(5-methyl-thiophen-2-yl)-phenyl]-acryloyl}-benzoic acid] | < 1 µM | 213 to 215 °C | –
COc1cc(OCCCN2CCOCC2)c(/C=C/C(=O)c2ccc(C(N)=O)cc2)cc1-c1cccs1 [Example 94, 4-{3E-[4-Methoxy-2-(3-morpholin4-yl-propoxy)-5-thiophen-2-yl-phenyl]-acryloyl}-benzamide] | < 1 µM | 81 to 83 °C | –
COc1cc(/C=C/C(=O)c2ccc(C(=O)O)cc2)cc(-c2cccs2)c1OC [Example 8, 4-[3E-(3,4-Dimethoxy-5-thiophen-2-yl-phenyl)-acryloyl]-benzoic acid] | < 1 µM | 231 °C | –
CCOC(=O)CNC(=O)N(C(=O)NCC(=O)OCC)c1ccc(C(=O)/C=C/c2cc(OC)c(OC)c(-c3cccs3)c2)cc1 [Example 16, (3-[Ethoxycarbonylmethylaminocarbonyl]-3-{4-[3E-(3,4-dimethoxy-5-thiophen-2-yl-phenyl)-acryloyl]-phenyl}-ureido)-acetic acid ethyl ester] | < 5 µM | 83 to 86 °C | –
COc1cc(OC)c(-c2cncnc2)cc1/C=C/C(=O)c1ccc(C(=O)O)cc1 [Example 31, 4-[3E-(2,4-Dimethoxy-5-pyrimidin-5-yl-phenyl)-acryloyl]-benzoic acid] | > 10 µM | > 260 °C | –
COc1cc(OC)c(-c2cc3ccccc3[nH]2)cc1/C=C/C(=O)c1ccc(C(=O)O)cc1 [Example 61, 4-{3E-[5-(1H-Indol-2-yl)-2,4-dimethoxy-phenyl]-acryloyl}-benzoic acid] | < 1 µM | 210 to 212 °C | –
COCCOCCOc1cc(OC)c(/C=C/C(=O)c2ccc(C(=O)O)cc2)cc1-c1cccs1 [Example 49, 4-(3E-{2-Methoxy-4-[2-(2-methoxy-ethoxy)-ethoxy]-5-thiophen-2-yl-phenyl}-acryloyl)-benzoic acid] | < 10 µM | 174 to 175 °C | –
COc1cc(OC)c(-c2cc3ccccc3s2)cc1/C=C/C(=O)c1ccc(S(=O)(=O)NC(=O)C(C)C)cc1 [Example 87, 4-[3E-(5-Benzo[b]thiophen-2-yl-2,4-dimethoxy-phenyl)-acryloyl]-N-isobutyryl-benzenesulfonamide] | < 1 µM | > 240 °C (dec.) | –
COc1cc(OC)c(-c2cc3ccccc3s2)cc1/C=C/C(=O)c1ccccc1C(=O)O [Example 7, 2-[3E-(5-Benzo[b]thiophen-2-yl-2,4-dimethoxy-phenyl)-acryloyl]-benzoic acid] | – | 220 to 223 °C (dec.) | < 1 µM
COc1cc(OCC(=O)N(C)C)c(/C=C/C(=O)c2ccc(C(=O)O)cc2)cc1-c1cccs1 [Example 67, 4-[3E-(2-Dimethylcarbamoylmethoxy-4-methoxy-5-thiophen-2-yl-phenyl)-acryloyl]-benzoic acid] | < 10 µM | 228 to 229 °C | –
COc1cc(/C=C/C(=O)c2ccc3c(c2)OC(CO)(CO)O3)cc(-c2cccs2)c1OC [Example 1, 1-(2,2-Bis-hydroxymethyl-benzo[1,3]dioxol-5-yl)-3E-(3,4-dimethoxy-5-thiophen-2-yl-phenyl)-propenone] | < 1 µM | 74 to 80 °C | –
COC(=O)c1ccc(-c2cc(/C=C/C(=O)c3ccc(C(=O)O)cc3)c(OC)cc2OC)s1 [Example 51, 5-{5-[3-(4-Carboxy-phenyl)-3-oxo-E-propenyl]-2,4-dimethoxy-phenyl}-thiophene-2-carboxylic acid methyl ester] | < 5 µM | – | –
COc1cc(OC)c(-c2cc3ccccc3s2)cc1/C=C\C(=O)c1ccc(C(=O)O)cc1 [Example 79, 4-[3Z-(5-Benzo[b]thien-2-yl-2,4-dimethoxyphenyl)-acryloyl]-benzoic acid] | < 1 µM | – | –
